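Step 1: Grow cells in 96-well plates. Step 2: Expose to compound for 48 hours at 5 concentrations. Step 3: Interpolate endpoints linearly; if unreached, use highest concentration. Abbreviation: GI50, concentration required for 50% inhibition of growth. TGI is the concentration that stops growth completely.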
Legend:
Test in all cases: NCI-60 cell line screen, 48 h
786-0 renal = tested on: 786-0 renal
A498 renal = tested on: A498 renal
A549 NSCLC = tested on: A549 NSCLC
ACHN renal = tested on: ACHN renal
BT-549 breast = tested on: BT-549 breast
COLO 205 colon = tested on: COLO 205 colon
DU-145 prostate = tested on: DU-145 prostate
EKVX NSCLC = tested on: EKVX NSCLC
HCC-2998 colon = tested on: HCC-2998 colon
HCT-116 colon = tested on: HCT-116 colon
HCT-15 colon = tested on: HCT-15 colon
HL-60(TB) leukemia = tested on: HL-60(TB) leukemia
HOP-62 NSCLC = tested on: HOP-62 NSCLC
HT29 colon = tested on: HT29 colon
IGROV1 ovarian = tested on: IGROV1 ovarian
K-562 leukemia = tested on: K-562 leukemia
KM12 colon = tested on: KM12 colon
LOX IMVI melanoma = tested on: LOX IMVI melanoma
M14 melanoma = tested on: M14 melanoma
MALME-3M melanoma = tested on: MALME-3M melanoma
MCF7 breast = tested on: MCF7 breast
MDA-MB-231 breast = tested on: MDA-MB-231 breast
MDA-MB-435 = tested on: MDA-MB-435
MOLT-4 leukemia = tested on: MOLT-4 leukemia
NCI-H226 lung = tested on: NCI-H226 lung
NCI-H23 lung = tested on: NCI-H23 lung
NCI-H460 lung = tested on: NCI-H460 lung
NCI-H522 lung = tested on: NCI-H522 lung
NCI/ADR-RES ovarian = tested on: NCI/ADR-RES ovarian
OVCAR-3 ovarian = tested on: OVCAR-3 ovarian
OVCAR-4 ovarian = tested on: OVCAR-4 ovarian
OVCAR-5 ovarian = tested on: OVCAR-5 ovarian
OVCAR-8 ovarian = tested on: OVCAR-8 ovarian
PC-3 prostate = tested on: PC-3 prostate
RXF 393 renal = tested on: RXF 393 renal
SF-268 CNS = tested on: SF-268 CNS
SF-295 CNS = tested on: SF-295 CNS
SF-539 CNS = tested on: SF-539 CNS
SK-MEL-2 melanoma = tested on: SK-MEL-2 melanoma
SK-MEL-28 melanoma = tested on: SK-MEL-28 melanoma
SK-MEL-5 melanoma = tested on: SK-MEL-5 melanoma
SK-OV-3 ovarian = tested on: SK-OV-3 ovarian
SN12C renal = tested on: SN12C renal
SNB-19 CNS = tested on: SNB-19 CNS
SNB-75 CNS = tested on: SNB-75 CNS
SR leukemia = tested on: SR leukemia
SW-620 colon = tested on: SW-620 colon
T-47D breast = tested on: T-47D breast
TK-10 renal = tested on: TK-10 renal
U251 CNS = tested on: U251 CNS
UACC-257 melanoma = tested on: UACC-257 melanoma
UACC-62 melanoma = tested on: UACC-62 melanoma
UO-31 renal = tested on: UO-31 renal

**Q.** With COCC(=O)Oc1cc(-c2ccc(C)cc2C)c(OC(=O)COC)c(-c2ccc(C)cc2C)c1 as the molecule, how does the GI50 (786-0 renal) read?
**A.** 10.7 µM

**Q.** What about the TGI (786-0 renal) of the same molecule?
**A.** 48.3 µM

**Q.** And the GI50 (A498 renal)?
**A.** 5.57 µM

**Q.** What about the TGI (A498 renal) of the same molecule?
**A.** 19.9 µM

**Q.** What about the GI50 (A549 NSCLC) of the same molecule?
**A.** 4.73 µM

**Q.** And the TGI (A549 NSCLC)?
**A.** 29.1 µM

**Q.** And the GI50 (ACHN renal)?
**A.** 9.07 µM

**Q.** What about the TGI (ACHN renal) of the same molecule?
**A.** > 100 µM

**Q.** And the GI50 (BT-549 breast)?
**A.** 7.7 µM

**Q.** What about the TGI (BT-549 breast) of the same molecule?
**A.** 22.9 µM

**Q.** And the GI50 (COLO 205 colon)?
**A.** 8.76 µM

**Q.** What about the TGI (COLO 205 colon) of the same molecule?
**A.** 23.8 µM

**Q.** What about the GI50 (DU-145 prostate) of the same molecule?
**A.** 10.3 µM

**Q.** What about the TGI (DU-145 prostate) of the same molecule?
**A.** 30.2 µM

**Q.** What about the GI50 (EKVX NSCLC) of the same molecule?
**A.** 4.36 µM

**Q.** And the TGI (EKVX NSCLC)?
**A.** 58.9 µM

**Q.** What about the GI50 (HCC-2998 colon) of the same molecule?
**A.** 13.5 µM

**Q.** What about the TGI (HCC-2998 colon) of the same molecule?
**A.** 28.9 µM

**Q.** And the GI50 (HCT-116 colon)?
**A.** 0.797 µM

**Q.** What about the TGI (HCT-116 colon) of the same molecule?
**A.** 14.4 µM

**Q.** And the GI50 (HCT-15 colon)?
**A.** 0.58 µM

**Q.** And the TGI (HCT-15 colon)?
**A.** > 100 µM

**Q.** What about the GI50 (HL-60(TB) leukemia) of the same molecule?
**A.** 2.21 µM

**Q.** What about the TGI (HL-60(TB) leukemia) of the same molecule?
**A.** 77.4 µM

**Q.** What about the GI50 (HOP-62 NSCLC) of the same molecule?
**A.** 11.7 µM

**Q.** What about the TGI (HOP-62 NSCLC) of the same molecule?
**A.** 28.1 µM

**Q.** What about the GI50 (HT29 colon) of the same molecule?
**A.** 4.02 µM

**Q.** And the TGI (HT29 colon)?
**A.** 21.8 µM

**Q.** And the GI50 (IGROV1 ovarian)?
**A.** 5.56 µM

**Q.** And the TGI (IGROV1 ovarian)?
**A.** 25.3 µM

**Q.** And the GI50 (K-562 leukemia)?
**A.** 3.56 µM

**Q.** What about the TGI (K-562 leukemia) of the same molecule?
**A.** > 100 µM

**Q.** And the GI50 (KM12 colon)?
**A.** 4.45 µM

**Q.** And the TGI (KM12 colon)?
**A.** 19.5 µM

**Q.** What about the GI50 (LOX IMVI melanoma) of the same molecule?
**A.** 1.12 µM

**Q.** What about the TGI (LOX IMVI melanoma) of the same molecule?
**A.** 15.5 µM

**Q.** And the GI50 (M14 melanoma)?
**A.** 7.69 µM

**Q.** What about the TGI (M14 melanoma) of the same molecule?
**A.** 21.6 µM

**Q.** And the GI50 (MALME-3M melanoma)?
**A.** 9.2 µM

**Q.** And the TGI (MALME-3M melanoma)?
**A.** 25.5 µM

**Q.** And the GI50 (MCF7 breast)?
**A.** 4.75 µM

**Q.** And the TGI (MCF7 breast)?
**A.** 51.4 µM

**Q.** And the GI50 (MDA-MB-231 breast)?
**A.** 6.03 µM

**Q.** And the TGI (MDA-MB-231 breast)?
**A.** 26.5 µM

**Q.** What about the GI50 (MDA-MB-435) of the same molecule?
**A.** 6.62 µM

**Q.** What about the TGI (MDA-MB-435) of the same molecule?
**A.** 30.2 µM

**Q.** What about the GI50 (MOLT-4 leukemia) of the same molecule?
**A.** 2.96 µM

**Q.** What about the TGI (MOLT-4 leukemia) of the same molecule?
**A.** > 100 µM

**Q.** And the GI50 (NCI-H226 lung)?
**A.** 8.59 µM

**Q.** What about the TGI (NCI-H226 lung) of the same molecule?
**A.** 46.9 µM

**Q.** And the GI50 (NCI-H23 lung)?
**A.** 5.61 µM

**Q.** What about the TGI (NCI-H23 lung) of the same molecule?
**A.** 23.4 µM

**Q.** What about the GI50 (NCI-H460 lung) of the same molecule?
**A.** 0.592 µM

**Q.** What about the TGI (NCI-H460 lung) of the same molecule?
**A.** 13.7 µM

**Q.** And the GI50 (NCI-H522 lung)?
**A.** 4.07 µM

**Q.** And the TGI (NCI-H522 lung)?
**A.** 18.3 µM

**Q.** And the GI50 (NCI/ADR-RES ovarian)?
**A.** 5.84 µM

**Q.** What about the TGI (NCI/ADR-RES ovarian) of the same molecule?
**A.** 55.3 µM

**Q.** What about the GI50 (OVCAR-3 ovarian) of the same molecule?
**A.** 3.64 µM

**Q.** And the TGI (OVCAR-3 ovarian)?
**A.** 16.5 µM

**Q.** What about the GI50 (OVCAR-4 ovarian) of the same molecule?
**A.** 3.33 µM

**Q.** What about the TGI (OVCAR-4 ovarian) of the same molecule?
**A.** 23.6 µM

**Q.** And the GI50 (OVCAR-5 ovarian)?
**A.** 21.7 µM

**Q.** And the TGI (OVCAR-5 ovarian)?
**A.** 61 µM

**Q.** What about the GI50 (OVCAR-8 ovarian) of the same molecule?
**A.** 4.51 µM

**Q.** What about the TGI (OVCAR-8 ovarian) of the same molecule?
**A.** 90.3 µM

**Q.** What about the GI50 (PC-3 prostate) of the same molecule?
**A.** 0.824 µM

**Q.** What about the TGI (PC-3 prostate) of the same molecule?
**A.** 35.1 µM

**Q.** What about the GI50 (RXF 393 renal) of the same molecule?
**A.** 11.2 µM

**Q.** What about the TGI (RXF 393 renal) of the same molecule?
**A.** 46.1 µM

**Q.** What about the GI50 (SF-268 CNS) of the same molecule?
**A.** 3.91 µM

**Q.** And the TGI (SF-268 CNS)?
**A.** 23.9 µM

**Q.** And the GI50 (SF-295 CNS)?
**A.** 5.58 µM

**Q.** And the TGI (SF-295 CNS)?
**A.** 29.6 µM

**Q.** And the GI50 (SF-539 CNS)?
**A.** 12 µM

**Q.** And the TGI (SF-539 CNS)?
**A.** 28.8 µM

**Q.** And the GI50 (SK-MEL-2 melanoma)?
**A.** 14.7 µM

**Q.** What about the TGI (SK-MEL-2 melanoma) of the same molecule?
**A.** 33.9 µM

**Q.** What about the GI50 (SK-MEL-28 melanoma) of the same molecule?
**A.** 11.2 µM

**Q.** What about the TGI (SK-MEL-28 melanoma) of the same molecule?
**A.** 23.6 µM

**Q.** What about the GI50 (SK-MEL-5 melanoma) of the same molecule?
**A.** 2.04 µM

**Q.** What about the TGI (SK-MEL-5 melanoma) of the same molecule?
**A.** 15.7 µM

**Q.** What about the GI50 (SK-OV-3 ovarian) of the same molecule?
**A.** 13.2 µM

**Q.** What about the TGI (SK-OV-3 ovarian) of the same molecule?
**A.** 61.5 µM

**Q.** And the GI50 (SN12C renal)?
**A.** 9.11 µM

**Q.** And the TGI (SN12C renal)?
**A.** 28.7 µM

**Q.** What about the GI50 (SNB-19 CNS) of the same molecule?
**A.** 11.9 µM

**Q.** What about the TGI (SNB-19 CNS) of the same molecule?
**A.** 43.6 µM

**Q.** And the GI50 (SNB-75 CNS)?
**A.** 3.22 µM

**Q.** What about the TGI (SNB-75 CNS) of the same molecule?
**A.** 20.4 µM

**Q.** And the GI50 (SR leukemia)?
**A.** 1.59 µM

**Q.** And the TGI (SR leukemia)?
**A.** > 100 µM

**Q.** And the GI50 (SW-620 colon)?
**A.** 5.09 µM

**Q.** And the TGI (SW-620 colon)?
**A.** 18.3 µM

**Q.** And the GI50 (T-47D breast)?
**A.** 4.52 µM

**Q.** What about the TGI (T-47D breast) of the same molecule?
**A.** 54.9 µM

**Q.** And the GI50 (TK-10 renal)?
**A.** 20.4 µM

**Q.** What about the TGI (TK-10 renal) of the same molecule?
**A.** > 100 µM

**Q.** And the GI50 (U251 CNS)?
**A.** 2.02 µM

**Q.** What about the TGI (U251 CNS) of the same molecule?
**A.** 23 µM

**Q.** What about the GI50 (UACC-257 melanoma) of the same molecule?
**A.** 8.23 µM

**Q.** And the TGI (UACC-257 melanoma)?
**A.** 35.9 µM

**Q.** And the GI50 (UACC-62 melanoma)?
**A.** 3.43 µM

**Q.** And the TGI (UACC-62 melanoma)?
**A.** 31.9 µM

**Q.** And the GI50 (UO-31 renal)?
**A.** 2.47 µM

**Q.** And the TGI (UO-31 renal)?
**A.** 15.5 µM

— PubChem BioAssay (NCI)
